Test results from US8242275B2, “Bicyclic pyrazole compounds as antibacterial agents” (Janssen Pharmaceutica NV, priority 2005, dated 2012).
Values after ≈ are worked out from the molar mass of the structure shown.

Key:
[1] = molecular target: T1, E. coli DNA gyrase (Escherichia coli, UniProt P0AES4+P0AES6); test: DNA gyrase inhibition assay (supercoiling); assay type: biochemical; conditions: E. coli DNA gyrase supercoiling, visual inspection of gels; read-out: DNA Gyrase IC50 (converted)
T1 construct: purchased John Innes Enterprises Ltd. (John Innes Centre, UK)
T1 sequence (P0AES4 whole entry, one chain of several): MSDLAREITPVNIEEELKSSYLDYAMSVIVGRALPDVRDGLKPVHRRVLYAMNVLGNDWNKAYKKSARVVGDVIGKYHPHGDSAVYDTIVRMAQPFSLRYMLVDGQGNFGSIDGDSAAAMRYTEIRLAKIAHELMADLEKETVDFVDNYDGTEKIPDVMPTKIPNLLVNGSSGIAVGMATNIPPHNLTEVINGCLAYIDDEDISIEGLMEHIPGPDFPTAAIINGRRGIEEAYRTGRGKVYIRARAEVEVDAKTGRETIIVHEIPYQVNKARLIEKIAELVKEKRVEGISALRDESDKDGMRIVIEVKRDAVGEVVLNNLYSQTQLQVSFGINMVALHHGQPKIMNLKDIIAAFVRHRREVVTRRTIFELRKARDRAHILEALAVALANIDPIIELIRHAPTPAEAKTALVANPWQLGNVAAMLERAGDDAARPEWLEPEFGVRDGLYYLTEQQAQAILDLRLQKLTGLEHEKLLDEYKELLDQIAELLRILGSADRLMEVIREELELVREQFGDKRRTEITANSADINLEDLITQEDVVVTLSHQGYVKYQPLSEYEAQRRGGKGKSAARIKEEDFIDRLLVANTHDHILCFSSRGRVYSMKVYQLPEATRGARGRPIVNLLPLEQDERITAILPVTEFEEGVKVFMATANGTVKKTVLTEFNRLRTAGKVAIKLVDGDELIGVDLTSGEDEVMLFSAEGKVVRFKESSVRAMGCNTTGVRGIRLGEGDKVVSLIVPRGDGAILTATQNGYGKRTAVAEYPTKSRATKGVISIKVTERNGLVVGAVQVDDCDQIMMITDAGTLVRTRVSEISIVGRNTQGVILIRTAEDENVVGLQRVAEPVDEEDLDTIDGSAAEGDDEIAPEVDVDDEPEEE
Method: Inhibition of the supercoiling activity of E. coli DNA gyrase was determined using enzymes, buffers and substrates received from John Innes Enterprises Ltd. (John Innes Centre, UK). The reactions were performed according to the manufacturer's directions, with the following modifications.
DNA supercoiling reactions were carried out in a total reaction volume of 20 μL containing 250 ng of relaxed pBR322, 35 mM Tris-HCl (pH 7.5), 24 mM KCl, 4 mM MgCl2, 2 mM dithiothreitol, 1.8 mM spermidine, 1 mM ATP, 6.5% glycerol and 100 μg/mL albumin. Compounds diluted in 10% DMSO were added to the reaction mixture to reach a final concentration of 0.5% DMSO. Enzyme was diluted to […] in a solution of 50 mM Tris-HCl (pH 7.5), 100 mM KCl, 2 mM dithiothreitol, 1 mM EDTA, and 50% glycerol. Diluted enzyme (0.2 unit) was added to each reaction.
The reactions were incubated at 37° C. for 30 min. The reactions were then cooled to 0° C., followed by addition of 3 μL of 40% glycerol, 100 mM Tris-HCl (pH 7.5), 50 mM EDTA, 0.5% SDS and 0.1% bromophenol blue. Samples were separated on 1.0% agarose gels. Gels were stained with Ethidium bromide and photographed with a Stratagene Eagle Eye II.

[2] = system: S. aureus ATCC13709; test: In vitro antibacterial activity (MIC assay), broth microdilution; assay type: cell-based; conditions: Staphylococcus aureus, ATCC13709; read-out: S. aureus ATCC13709 MIC
Method: (§1) Minimal inhibitory concentration (MIC) has been an indicator of in vitro antibacterial activity widely used in the art. The in vitro antibacterial activity of the compounds was determined by the broth microdilution method described by the National Committee for Clinical Laboratory Standards (NCCLS) in the NCCLS Document M7-A5, Vol. 20, No. 2, “Methods for Dilution Antimicrobial Susceptibility Test for Bacteria that Grow Aerobically—Fifth Edition”, which is incorporated herein by reference.
(§2) In this method, an aliquot of test compound from an 11-point series of 2-fold serial dilutions of compounds in 100% DMSO was added to wells in microdilution plates. The test organisms were prepared by adjusting the turbidity of actively growing broth cultures so that the final concentration of test organism after addition to wells with or without compounds was approximately 5×10^5 CFU/mL.
(§3) Following inoculation of the microdilution plates, the plates were incubated at 35° C. for 16-24 h and then scored for bacterial growth. […] The amount of growth in the wells containing the test compound was compared with the amount of growth in the growth-control wells (no test compound used) in each plate, and with the amount of growth in the wells containing control compounds (such as ciprofloxacin). Compounds of the present invention were tested against several bacterial strains. The MIC values (in μg/mL) are presented in Table 1 for Gram-negative (E. coli KL-16 (GSC strain 4245); data marked as (*) was obtained with E. coli ATCC25922) and Gram-positive bacteria (S. aureus ATCC13709; S. pneumoniae ATCC49619).

[3] = system: S. pneumoniae ATCC49619; test: as above; assay type: cell-based; conditions: Streptococcus pneumoniae, ATCC49619; read-out: S. pneumoniae ATCC49619 MIC
Method: as §1, §2, §3

[4] = system: E. coli KL-16 (GSC strain 4245); test: as above; assay type: cell-based; conditions: Escherichia coli
Method: as §1, §2, §3

SMILES	IC50 [1] [µM]	MIC [2] [µg/mL]	MIC [3] [µg/mL]	MIC [4] [µg/mL]
COc1ccc2nccc(-n3cc4c(n3)CCC(NC(=O)c3cccnc3Cl)C4)c2c1 (stereo not drawn) [Example 78, 2-Chloro-N-[2-(6-methoxy-quinolin-4-yl)-4,5,6,7-tetrahydro-2H-indazol-5-yl]-nicotinamide]	> 36.9	16 (≈ 36.9 µM)	> 128	> 128
COc1ccc2nccc(-n3cc4c(n3)CCC(NC(=O)/C=C/c3cc(F)cc(F)c3)C4)c2n1 (stereo not drawn) [Example 11, 3-(3,5-Difluoro-phenyl)-N-[2-(6-methoxy-[1,5]naphthyridin-4-yl)-4,5,6,7-tetrahydro-2H-indazol-5-yl]-acrylamide]	4.33	< 0.125	16 (≈ 34.7 µM)	> 128
COc1ccc2nccc(-n3cc4c(n3)CCC(NC(=O)c3cc5c(cc3C(F)(F)F)SCC(=O)N5)C4)c2n1 (stereo not drawn) [Example 112, 3-Oxo-7-trifluoromethyl-3,4-dihydro-2H-benzo[1,4]thiazine-6-carboxylic acid [2-(6-methoxy-[1,5]naphthyridin-4-yl)-4,5,6,7-tetrahydro-2H-indazol-5-yl]-amide]	0.451	0.125 (≈ 0.225 µM)	8 (≈ 14.4 µM)	4 (≈ 7.21 µM)
COc1ccc2nccc(-n3cc4c(n3)CCC(NC(=O)C(=O)c3cc5ccccc5[nH]3)C4)c2n1 (stereo not drawn) [Example 9, 2-(1H-Indol-2-yl)-N-[2-(6-methoxy-[1,5]naphthyridin-4-yl)-4,5,6,7-tetrahydro-2H-indazol-5-yl]-2-oxo-acetamide]	> 34.3	0.25 (≈ 0.536 µM)	4 (≈ 8.57 µM)	> 128
COc1ccc2nccc(-n3cc4c(n3)CCC(NC(=O)c3ccc([N+](=O)[O-])cc3F)C4)c2c1 (stereo not drawn) [Example 118, 2-Fluoro-N-[2-(6-methoxy-quinolin-4-yl)-4,5,6,7-tetrahydro-2H-indazol-5-yl]-4-nitro-benzamide]	> 34.7	4 (≈ 8.67 µM)	> 128	> 128
COc1ccc2nccc(-n3cc4c(n3)CCC(NCCOc3ccccc3)C4)c2n1 (stereo not drawn) [Example 65, [2-(6-Methoxy-[1,5]naphthyridin-4-yl)-4,5,6,7-tetrahydro-2H-indazol-5-yl]-(2-phenoxy-ethyl)-amine]	2.41	0.5 (≈ 1.2 µM)	1 (≈ 2.41 µM)	> 128
COc1ccc2nccc(-n3cc4c(n3)CCC(NC(=O)c3ccc(Br)s3)C4)c2c1 (stereo not drawn) [Example 72, 5-Bromo-thiophene-2-carboxylic acid [2-(6-methoxy-quinolin-4-yl)-4,5,6,7-tetrahydro-2H-indazol-5-yl]-amide]	> 33.1	2 (≈ 4.14 µM)	> 128	> 128
COc1ccc2nccc(-n3cc4c(n3)CCC(NC(=O)c3cc5c(F)cc(F)cc5[nH]3)C4)c2c1 (stereo not drawn) [Example 22, 4,6-Difluoro-1H-indole-2-carboxylic acid [2-(6-methoxy-quinolin-4-yl)-4,5,6,7-tetrahydro-2H-indazol-5-yl]-amide]	1.06	0.5 (≈ 1.06 µM)	8 (≈ 16.9 µM)	> 128
COc1ccc2nccc(-n3cc4c(n3)CCC(NCc3cc(F)c5c(c3)OCCO5)C4)c2c1 (stereo not drawn) [Example 100, (8-Fluoro-2,3-dihydro-benzo[1,4]dioxin-6-ylmethyl)-[2-(6-methoxy-quinolin-4-yl)-4,5,6,7-tetrahydro-2H-indazol-5-yl]-amine]	1.09	0.25 (≈ 0.543 µM)	0.5 (≈ 1.09 µM)	16 (≈ 34.7 µM)
COc1ccc2nccc(-n3cc4c(n3)CCC(NC(=O)/C=C/c3ccc(F)cc3F)C4)c2n1 (stereo not drawn) [Example 120, 3-(2,4-Difluoro-phenyl)-N-[2-(6-methoxy-[1,5]naphthyridin-4-yl)-4,5,6,7-tetrahydro-2H-indazol-5-yl]-acrylamide]	4.33	0.125 (≈ 0.271 µM)	4 (≈ 8.67 µM)	> 128
COc1ccc2nccc(-n3cc4c(n3)CCC(NC(=O)/C=C/c3ccc(F)cc3)C4)c2n1 (stereo not drawn) [Example 13, 3-(4-Fluoro-phenyl)-N-[2-(6-methoxy-[1,5]naphthyridin-4-yl)-4,5,6,7-tetrahydro-2H-indazol-5-yl]-acrylamide]	> 36.1	0.5 (≈ 1.13 µM)	8 (≈ 18 µM)	> 128
COc1ccc2nccc(-n3cc4c(n3)CCC(NC(=O)c3ccc5c(c3)NC(=O)CO5)C4)c2c1 (stereo not drawn) [Example 116, 3-Oxo-3,4-dihydro-2H-benzo[1,4]oxazine-6-carboxylic acid [2-(6-methoxy-quinolin-4-yl)-4,5,6,7-tetrahydro-2H-indazol-5-yl]-amide]	0.532	0.125 (≈ 0.266 µM)	4 (≈ 8.52 µM)	2 (≈ 4.26 µM)
COc1ccc2nccc(-n3cc4c(n3)CCC(NCc3cc5c(cc3Cl)OCO5)C4)c2n1 (stereo not drawn) [Example 105, N-((6-chlorobenzo[d][1,3]dioxol-5-yl)methyl)-2-(6-methoxy-1,5-naphthyridin-4-yl)-4,5,6,7-tetrahydro-2H-indazol-5-amine]	4.31	0.5 (≈ 1.08 µM)	4 (≈ 8.62 µM)	> 128
COc1ccc2nccc(-n3cc4c(n3)CCC(NC/C=C/c3ccc(F)cc3)C4)c2c1 (stereo not drawn) [Example 57, [3-(4-Fluoro-phenyl)-allyl]-[2-(6-methoxy-quinolin-4-yl)-4,5,6,7-tetrahydro-2H-indazol-5-yl]-amine]	4.67	1 (≈ 2.33 µM)	2 (≈ 4.67 µM)	64 (≈ 149 µM)
COc1ccc2nccc(-n3cc4c(n3)CCC(NC(=O)c3ccc(C(C)=O)s3)C4)c2c1 (stereo not drawn) [Example 73, 5-Acetyl-thiophene-2-carboxylic acid [2-(6-methoxy-quinolin-4-yl)-4,5,6,7-tetrahydro-2H-indazol-5-yl]-amide]	> 35.8	4 (≈ 8.96 µM)	64 (≈ 143 µM)	> 128
COc1ccc2nccc(-n3cc4c(n3)CCC(NCc3cc(F)c5c(c3)OCCO5)C4)c2n1 (stereo not drawn) [Example 101, (8-Fluoro-2,3-dihydro-benzo[1,4]dioxin-6-ylmethyl)-[2-(6-methoxy-[1,5]naphthyridin-4-yl)-4,5,6,7-tetrahydro-2H-indazol-5-yl]-amine]	0.542	0.125 (≈ 0.271 µM)	1 (≈ 2.17 µM)	4 (≈ 8.67 µM)
COc1ccc2nccc(-n3cc4c(n3)CCC(NCc3cc5c(cc3Cl)OCCO5)C4)c2n1 (stereo not drawn) [Example 104, (7-Chloro-2,3-dihydro-benzo[1,4]dioxin-6-ylmethyl)-[2-(6-methoxy-[1,5]naphthyridin-4-yl)-4,5,6,7-tetrahydro-2H-indazol-5-yl]-amine]	1.05	0.125 (≈ 0.262 µM)	1 (≈ 2.09 µM)	8 (≈ 16.7 µM)
COc1ccc2nccc(-n3cc4c(n3)CCC(NC/C=C/c3cccnc3)C4)c2n1 (stereo not drawn) [Example 47, [2-(6-Methoxy-[1,5]naphthyridin-4-yl)-4,5,6,7-tetrahydro-2H-indazol-5-yl]-(3-pyridin-3-yl-allyl)-amine]	4.85	1 (≈ 2.42 µM)	4 (≈ 9.7 µM)	128 (≈ 310 µM)
COc1ccc2nccc(-n3cc4c(n3)CCC(NCCCc3ccc(C)cc3)C4)c2n1 (stereo not drawn) [Example 49, [2-(6-Methoxy-[1,5]naphthyridin-4-yl)-4,5,6,7-tetrahydro-2H-indazol-5-yl]-(3-p-tolyl-propyl)-amine]	7.02	< 0.125	0.5 (≈ 1.17 µM)	128 (≈ 299 µM)
COc1ccc2nccc(-n3cc4c(n3)CC(NC(=O)c3cc5c(cc3F)SCC(=O)N5)CC4)c2c1 (stereo not drawn) [Example 28, 7-Fluoro-3-oxo-3,4-dihydro-2H-benzo[1,4]thiazine-6-carboxylic acid [2-(6-methoxy-quinolin-4-yl)-4,5,6,7-tetrahydro-2H-indazol-6-yl]-amide]	3.97	0.25 (≈ 0.496 µM)	4 (≈ 7.94 µM)	16 (≈ 31.8 µM)
COc1ccc2nccc(-n3cc4c(n3)CCC(NC(=O)/C=C/c3ccc(F)c(F)c3)C4)c2n1 (stereo not drawn) [Example 93, 3-(3,4-Difluoro-phenyl)-N-[2-(6-methoxy-[1,5]naphthyridin-4-yl)-4,5,6,7-tetrahydro-2H-indazol-5-yl]-acrylamide]	> 34.7	0.25 (≈ 0.542 µM)	16 (≈ 34.7 µM)	> 128
